{
  "source": "paper PMC3126777",
  "about": "“Selective anticancer activity of a hexapeptide with sequence homology to a non-kinase domain of Cyclin Dependent Kinase 4” (Molecular Cancer, 2011)",
  "key": {"[1]": {"assay": "Preliminary pharmacokinetic experiments", "assay_type": "in vivo", "details": "maximum tolerated dose, species not given"}, "NCI-H460 cells": {"tested_on": "NCI-H460 cells", "assay": "Total cellular protein (sulphorhodamine B assay)", "assay_type": "cell-based, human", "details": "H460, 100 μM THR53, up to 96 hours, sulphorhodamine B", "method": "Control medium/alamar blue were removed and 200 μl PBS was added. […] Wells were rinsed with water and allowed to air dry. Cells were then stained in 0.4% SRB solution, before rinsing with 1% acetic acid and air drying. Incorporated dye was solubilised in 10 mM Tris and absorbance measured at 565 nm and 690 nm. Absorbance measurements at 690 nm were subtracted from the 565 nm readings to correct for multi-well plate absorbance."}, "[2]": {"tested_on": "H1299 human non-small cell lung cancer cells", "assay": "Necrosis assay by Trypan Blue exclusion, H1299", "assay_type": "cell-based", "method": "(§1) Necrosis Assay Cells were plated in triplicate in 96 well plates at concentrations of 500 cells per well (HT1299, MCF-7) or 1000 cells per well (H460, MRC5-hTERT) in the presence or absence of the relevant compound and assessed by Trypan Blue exclusion At 2,3,4 and 7 days after plating. To assay, cells were trypsinised off, stained with trypan blue in isotonic medium and live and dead cells separately counted visually by haemocytomter. Each data point is the mean of results from triplicate wells (Solid lines - Live cells, Broken lines - Dead Cells; Blue - Control, Red - THR53 200 μM)."}, "[3]": {"tested_on": "normal diploid human fibroblasts", "assay": "In-vitro morphological cell viability screen, normal fibroblasts", "assay_type": "cell-based", "details": "dose 200 μM"}, "[4]": {"tested_on": "normal diploid human keratinocytes", "assay": "Morphological cytotoxicity in primary keratinocyte cultures", "assay_type": "cell-based", "details": "200 μM THR53 (Figure 2B)", "method": "(§2) The appearances of the disintegrating colonies in Figure 4B were not dissimilar to those of \"starbursts\" earlier reported in human in vitro cancer cell colonies undergoing spontaneous cell death. Table 5 lists 11 cell lines with complete response to 200 μM THR53. This relatively homogeneous therapeutic response to the same critical dose of THR53 markedly contrasts with the wide range of variability of in-vitro dose response of different cancer cell lines typically seen with conventional chemotherapeutic agents In addition to showing lack of toxicity towards normal human diploid fibroblasts, THR53 and related cyclic amphiphilic PRGPRP-containing peptides were not cytotoxic to normal diploid human keratinocytes growing as primary cultures (Figure 2B) or to MRC5-hTERT immortalised fibroblasts (Figures 4A and 5A)."}, "[5]": {"tested_on": "H460 human non-small cell lung cancer cells", "assay": "Necrosis assay by Trypan Blue exclusion, H460", "assay_type": "cell-based", "method": "as §1"}, "[6]": {"tested_on": "MRC5-hTERT immortalised fibroblasts", "assay": "Necrosis assay by Trypan Blue exclusion, MRC5-hTERT", "assay_type": "cell-based", "method": "as §1"}, "[7]": {"tested_on": "RT112 human bladder cancer cells", "assay": "Time lapse photomicrography, RT112", "assay_type": "cell-based", "details": "RT112, 200 μM THR53, Ham's F12 + 10% FCS", "method": "(§3) Progressive morphological changes in dying H460 cells exposed to 200 μM THR53 [additional file 1], contrasted with progressive cell division in untreated H460 cells [additional file 2] are shown as videos. Immortalised MRC5-hTERT fibroblasts, were unaffected by exposure to 200 μM THR53 except for some generalised slowing of growth (Figure 5A), [additional file 3] as compared to control, untreated, MRC5-hTERT cells [additional file 4]. RT112 cells were more sensitive to THR53 than H460 cells and died within 30 - 40 hours as compared to 96 hours for H460 and the majority of other human cancer cell lines investigated.\n(§4) Figure 5 Time Lapse Photomicrography of MRC5-hTERT, RT112 human bladder cancer and […] human non-small cell lung cancer following exposure toTHR53. Cells were incubated in Ham's F12 + 10% FCS (control medium) or medium + 200 μM THR53. Morphological changes of vacuolation + cellar swelling are seen in RT112 at 33 hours after exposure to THR53 and in H460 at 90 hours after exposure to THR53. There was no evidence of cell blebbing or fragmentation. (see also videos)"}, "H460 cells": {"tested_on": "H460 cells", "assay": "Autophagy Assay (Cyto-ID Green, flow cytometry)", "assay_type": "cell-based, human", "details": "H460, 100 μM, 72 h and 96 h", "method": "Autophagy Assay was performed as recommended by the manufacturers' instructions (Enzo ENZ-51031-[…]). Briefly, H460 cells were seeded into 6 well plates at 2.5 × 10^5 and 1 × 10^5 cells/well. Immediately after cell plating, chloroquine or […] were added at the concentrations indicated. Following compound treatment, cells were washed once in PBS and resuspended in x1 Cyto-ID Green autophagy detection reagent and incubated at room temperature for 30 min. Immediately prior to analysis, propidium iodide (PI) solution was added to the cell suspension at a final concentration of 2.5 μg/ml, to assess cell death. Analysis was carried out using FACSCalibur (BD Biosciences). Cyto-ID Green autophagy reagent was measured in the FL-1 channel (530/30 nm bandpass filters with excitation at 488 nm) and PI measured in the FL-3 channel (670 nm longpass filters with excitation at 488 nm)."}, "[8]": {"tested_on": "H460 human non-small cell lung cancer cells", "assay": "H460 cell killing at the dose chosen for assay comparison", "assay_type": "cell-based", "details": "100 μM, by 96 hours", "method": "In order to probe the mechanism of PRGPRP analogue induced cell death, three assays were conducted on H460 human non-small cell lung cancer cells over a period of 96 hours following exposure to THR53 (Figure 7A). Total cellular protein was measured by sulphorhodamine B [31], mitochondrial oxidation/reduction was measured by Alamar Blue assay and cellular ATP level was measured by luciferase activity. A dose of 100 μM THR53 at which 50% of H460 cells were killed by 96 hours was chosen for assay comparison. […] An assay for autophagy was thus carried out which utilises a proprietary reagent (Cyto-ID Green) that specifically labels autophagolysosomes, co-localising with LC3, a specific autophagosome marker. 25 μM Chloroquine was used as a positive control agent known to induce autophagy. […] However, no difference in the mean fluorescent intensity was seen following treatment with 100 μM THR53 at either 72 h or 96 h, when compared with control."}, "MGHU-1 Carcinoma Bladder": {"tested_on": "MGHU-1 Carcinoma Bladder", "assay": "Response of cancer cell line to 200 μM THR53 (morphology, clonogenic assay)", "assay_type": "cell-based, human", "details": "MGHU-1, 200 μM; morphological changes at 5 days, clonogenic assays at 15 days", "method": "as §2\n(§5) All cell lines were from certified sources."}, "G361 Melanoma": {"tested_on": "G361 Melanoma", "assay": "Response of cancer cell line to 200 μM THR53 (morphology, clonogenic assay)", "assay_type": "cell-based, human", "details": "G361, 200 μM; morphological changes at 5 days, clonogenic assays at 15 days", "method": "as §2, §5"}, "[9]": {"tested_on": "MCF-7 human breast cancer cells", "assay": "Necrosis assay by Trypan Blue exclusion, MCF-7", "assay_type": "cell-based", "method": "as §1"}, "[10]": {"tested_on": "H460 human non-small cell lung cancer cells", "assay": "Time lapse photomicrography, H460", "assay_type": "cell-based", "details": "H460, 200 μM THR53, Ham's F12 + 10% FCS", "method": "as §3, §4"}},
  "note": "“Also recorded” adds a separate entry of the source.",
  "data": [
    {"substance": "Cyc-[FPPRGPRPVKLALKLALK] (head to tail) [THR53, cyclic amphiphilic analogue, Cyc-[…]]", "values": [
      {"measurement": "plasma levels", "setting": "[1]", "result": "low plasma levels which were not persistent"},
      {"measurement": "total cellular protein", "setting": "NCI-H460 cells", "result": "without change"},
      {"measurement": "day at which necrotic cells are initially detectable", "setting": "[2]; H1299, 200 μM", "result": 3, "unit": "days"},
      {"measurement": "necrosis detected by trypan blue uptake", "setting": "[2]; H1299, 200 μM, 2, 3, 4 and 7 days after plating, triplicate wells", "result": "induces necrosis"},
      {"measurement": "Cell Viability Normal Diploid Fibroblasts", "setting": "[3]", "result": "+ + +"},
      {"measurement": "cytotoxicity to normal diploid human keratinocytes", "setting": "[4]", "result": "not cytotoxic"},
      {"measurement": "day at which necrotic cells are initially detectable", "setting": "[5]; H460, 200 μM", "result": 3, "unit": "days"},
      {"measurement": "necrosis detected by trypan blue uptake", "setting": "[5]; H460, 200 μM, 2, 3, 4 and 7 days after plating, triplicate wells", "result": "induces necrosis"},
      {"measurement": "cytotoxicity to MRC5-hTERT immortalised fibroblasts", "setting": "[6]; 200 μM (Figures 4A and 5A)", "result": "not cytotoxic"},
      {"measurement": "necrosis / viability by trypan blue exclusion", "setting": "[6]; MRC5-hTERT, 200 μM, 2, 3, 4 and 7 days after plating, triplicate wells", "result": "unaffected; also recorded: not in MRC5-h-TERT immortalised fibroblasts"},
      {"measurement": "time at which morphological changes of vacuolation + cellular swelling are seen", "setting": "[7]", "result": 33, "unit": "hours"},
      {"measurement": "time to cell death", "setting": "[7]", "result": "30 to 40", "unit": "h"},
      {"measurement": "autophagy, Cyto-ID Green mean fluorescent intensity compared with control", "setting": "H460 cells", "result": "no difference"},
      {"measurement": "H460 cells killed", "setting": "[8]", "result": 50, "unit": "%"},
      {"measurement": "response to THR53", "setting": "MGHU-1 Carcinoma Bladder", "result": "total cell death"},
      {"measurement": "response to THR53", "setting": "G361 Melanoma", "result": "total cell death"},
      {"measurement": "day at which necrotic cells are initially detectable", "setting": "[9]; MCF-7, 200 μM", "result": 3, "unit": "days"},
      {"measurement": "necrosis detected by trypan blue uptake", "setting": "[9]; MCF-7, 200 μM, 2, 3, 4 and 7 days after plating, triplicate wells", "result": "induces necrosis"},
      {"measurement": "time at which morphological changes of vacuolation + cellular swelling are seen", "setting": "[10]", "result": 90, "unit": "hours"},
      {"measurement": "time to cell death", "setting": "[10]", "result": 96, "unit": "h"}
    ]}
  ]
}
